Consider 1 molecule from ChEMBL document CHEMBL1156612, “The chemical and hydroxyl radical scavenging activity changes of ginsenoside-Rb1 by heat processing” (Bioorg Med Chem Lett, 2008).

What all share (assay type): functional
What all share (set-up): scale not given: the % may be the effect or the level left

Test [1] is described as follows: Antioxidant activity assessed as inhibition of hydroxyl radical production at 0.5% concentration%.
Test [2] is described as follows: Antioxidant activity assessed as inhibition of hydroxyl radical production after heat processing.
Test [3] in a line: Antioxidant activity assessed as inhibition of hydroxyl radical production at 0.05% concentration%.

Structures are written as SMILES.

With `CC(C)=CCC[C@](C)(O[C@@H]1O[C@H](CO[C@@H]2O[C@H](CO)[C@@H](O)[C@H](O)[C@H]2O)[C@@H](O)[C@H](O)[C@H]1O)[C@H]1CC[C@]2(C)[C@@H]1[C@H](O)C[C@@H]1[C@@]3(C)CC[C@H](O[C@@H]4O[C@H](CO)[C@@H](O)[C@H](O)[C@H]4O[C@@H]4O[C@H](CO)[C@@H](O)[C@H](O)[C@H]4O)C(C)(C)[C@@H]3CC[C@]12C`, the figures for the Activity in test [1], in test [2] and in test [3] were 24%, 42% and 47%, respectively.
